system: LNCaP C4-2; experiment: Inhibition of HIF1-alpha production in c4-2 cells at 20 nM after 24 hrs relative to control; type: functional; settings: Homo sapiens, LNCaP C4-2, 24 h

Question: For CO[C@H]1C[C@@H]2CC[C@@H](C)[C@@](O)(O2)C(=O)C(=O)N2CCCC[C@H]2C(=O)O[C@H]([C@H](C)C[C@@H]2CC[C@@H](O)[C@H](OC)C2)CC(=O)[C@H](C)/C=C(\C)[C@@H](O)[C@@H](OC)C(=O)[C@H](C)C[C@H](C)/C=C/C=C/C=C/1C [SIROLIMUS], which inhibition at 0.02 µM is on record?
Answer: Its inhibition at 0.02 µM is 35%.

system: LNCaP C4-2; experiment: Inhibition of HIF1alpha production in c4-2 cells at 10 uM after 24 hrs relative to control; type: functional; settings: Homo sapiens, LNCaP C4-2, 24 h

Question: Which inhibition at 10 µM does the source give for CCCNc1c2c(c(=O)n3c1-c1nc4ccccc4cc1C3)COC(=O)[C@]2(O)CC here?
Answer: The inhibition at 10 µM was 76%.

Question: How did the inhibition at 10 µM turn out when CC[C@@]1(O)C(=O)OCc2c1c(NCCF)c1n(c2=O)Cc2cc3ccccc3nc2-1 was run?
Answer: The inhibition at 10 µM was 88%.

Question: CC[C@@]1(O)C(=O)OCc2c1c(NCc1cccc(F)c1)c1n(c2=O)Cc2cc3ccccc3nc2-1 was tested. Which inhibition at 10 µM did it give?
Answer: The inhibition at 10 µM was 0%.

Question: For CC[C@@]1(O)C(=O)OCc2c1c(NCc1ccc(F)cc1)c1n(c2=O)Cc2cc3ccccc3nc2-1, which inhibition at 10 µM is on record?
Answer: The inhibition at 10 µM was 40%.

Question: Which inhibition at 10 µM does the source give for CC[C@@]1(O)C(=O)OCc2c1c(NCc1ccc(OC)cc1)c1n(c2=O)Cc2cc3ccccc3nc2-1 here?
Answer: Its inhibition at 10 µM is 9%.

Question: CC[C@@]1(O)C(=O)OCc2c1cc1n(c2=O)Cc2cc3ccccc3nc2-1 [CAMPTOTHECIN] was tested. Which inhibition at 10 µM did it give?
Answer: The inhibition at 10 µM was 69%.

Question: How did the inhibition at 10 µM turn out when CC[C@@]1(O)C(=O)OCc2c1cc1n(c2=O)Cc2cc3c(CN(C)C)c(O)ccc3nc2-1 [TOPOTECAN] was run?
Answer: Its inhibition at 10 µM is 69%.

— ChEMBL document CHEMBL1139736, “Microwave expedited synthesis of 5-aminocamptothecin analogs: Inhibitors of hypoxia inducible factor HIF-1alpha” (2006)
